Reference: patent US20220162558A1, “METHOD FOR INDUCING DIFFERENTIATION OF STEM CELLS INTO CHONDROCYTES BY USING OLIGOPEPTIDES” (POSTERA HEALTH SCIENCE Inc., priority 2019, published 2022)
Entries after “also recorded” stand apart in the source; their conditions may differ.

Legend:
Assay type in all cases: cell-based
[1] = system: sGAG in tonsil-derived mesenchymal stem cells; assay: Alcian blue staining of sectioned 3D pellets; conditions: 3D pellet cultured 21 days, sections of 7 μm
Protocol: (§1) Tonsil-derived mesenchymal stem cells (passage 6) were enzymatically detached by trypsin treatment and counted by a hemocytometer. The tube was centrifuged in 500-g relative centrifugal force (RCF) for 10 minutes and incubated at 37° C. under 5% carbon dioxide for 24 hours. A cell pellet consisting of about 3.0×10^5 cells was formed in a conical polypropylene tube (15 mL). The FBS-containing growth medium was replaced by medium A containing a high-glucose DMEM supplemented with 1.0% (v/v) antibiotic/antimitotic solution, 1.0% (v/v) penicillin/streptomycin solution, 50 μg/mL ascorbate-2-phosphate, 40 μg/mL L-proline, and 1% ITS+Premix (final concentration: 10 μg/mL bovine insulin, 5.5 μg/mL transferrin, 5 μg/mL sodium selenite, 4.7 μg/mL linoleic acid, and 0.5 mg/mL BSA), and 100 nM dexamethasone. Pellets were cultured at 37° C. under 5% carbon dioxide for 21 days under the following three different conditions: 1) medium A only, 2) medium A supplemented with kartogenin, or 3) medium A supplemented with each tripeptides. Each medium was replaced every three days. Triplicate experiments were carried out for each system.

[2] = system: tonsil-derived mesenchymal stem cells (TMSCs); assay: 3D pellet culture: biomarker mRNA expression by real-time RT-PCR; conditions: tripeptide 10 μM, 3D pellet culture in chondrogenic medium
Protocol: as §1
(§2) Total RNA was extracted from the cells by using a TRIZOL™ reagent (Invitrogen, USA). The mRNA concentration was assayed by Nano Drop 2000 spectrophotometer (Thermo Scientific, USA). cDNA was synthesized by ReverTra Ace® qPCR RT kit (Toyobo, Japan). mRNA expression levels were analyzed by real-time RT-PCR (CFX96™, Bio-Rad, USA) using IQ™ SYBR® Green Supermix (Bio-Rad, USA). The expression levels of target genes were calculated as 2^−ΔΔCt by the following calculation equation, and the primer sequences are shown in Table 1 below.
(§3) ΔΔCt=(gene A−GAPDH)−(gene A−GAPDH)control
The medium was supplemented with each tripeptide (10 μM), and tonsil-derived mesenchymal stem cells (size: ˜ mm) were prepared. Chondrogenic medium without tripeptide was used as control experiment. Medium supplemented with kartogenin (target molecule) instead of tripeptide was used for the purpose of comparing chondrogenic differentiation of tonsil-derived mesenchymal stem cells.

[3] = system: COL II in tonsil-derived mesenchymal stem cells; assay: Immunofluorescence assay of COL II protein in sectioned 3D pellets; conditions: 3D pellet culture, compared with control system and WFE- or WLE-treated system
Protocol: as §1, with “Triplicate experiments were carried out for each system.” left out
The stem cell pellets were fixed in formalin aqueous solution (10% v/v) and embedded in paraffin. […] Then, the sectioned cell pellet samples were deparaffinized by xylene, and analyzed by immunofluorescence using antibody, alcian blue staining, and safranin O staining to visualize COL II, sGAG and proteoglycan, respectively. […]

[4] = system: tonsil-derived mesenchymal stem cells (TMSCs); assay: First-round screening: chondrogenic biomarker mRNA expression by real-time RT-PCR in 2D culture; conditions: tripeptide 10 μM, serum-free medium, after 7 days of incubation
Protocol: The medium was replaced every three days.
as §2, §3

[5] = system: proteoglycan in tonsil-derived mesenchymal stem cells; assay: Safranin O staining of sectioned 3D pellets; conditions: 3D pellet cultured 21 days, sections of 7 μm
Protocol: as §1

Compound	sGAG, alcian blue staining [1]	chondrogenic mRNAs of COL II, COMP and ACAN, expression [2]	expression levels of COL X and COL I α2 relative to control system ([2]; hypertrophy / osteogenic biomarkers)	COL II at protein level, red staining by immunofluorescence [3]	chondrogenic biomarker expression at mRNA level (COL II, SOX 9, COMP) [4]	proteoglycan, safranin O staining [5]
tyrosine-tyrosine-glutamic acid [YYE]	upregulated	highly expressed	less than half of the control system	distinguished for their red staining by COL II	enhanced; also recorded: good promoter comparable to kartogenin	upregulated
tryptophan-leucine-glutamic acid [WLE]		highly expressed			enhanced	
tryptophan-phenylalanine-glutamic acid [WFE]		highly expressed			enhanced	
O=C(O)c1ccccc1C(=O)Nc1ccc(-c2ccccc2)cc1 [kartogenin, reference compound]				distinguished for their red staining by COL II		
